Species: Rattus norvegicus
Assay: Open TG-GATES - Regimen: Daily Repeat
Format: toxicity, organism-based, Sprague-Dawley
Set-up: regimen Daily Repeat, gender Male, age 6 weeks
Conditions: in vivo, po, 0 mg/kg, route gavage, dose level Control; for APTT / Bas / Eos / Fbg / Hb / Ht / Lym / MCH / MCHC / MCV / Mono / Neu / PT / Plat / RBC / Ret / WBC: tissue Blood; for KIDNEY_L / KIDNEY_R / KIDNEY_TOTAL: tissue Kidney; for LIVER: tissue Liver; for A/G / ALP / ALT / AST / BUN / CRE / Ca / Cl / DBIL / GLC / IP / K / LDH / Na / PL / RALB / TBIL / TC / TG / TP / gamma-GTP: tissue Plasma

CCOc1ccc(NC(=O)CC(C)O)cc1 (configuration not stated) [BUCETIN]
TERMINAL_BW (72 h, time 3 day): 249.6 g | APTT (72 h, time 3 day): 17.8 s | Bas (72 h, time 3 day): 0% | Eos (72 h, time 3 day): 1% | Fbg (72 h, time 3 day): 305.2 mg/dL | Hb (72 h, time 3 day): 13.4 g/dL | Ht (72 h, time 3 day): 40.2% | Lym (72 h, time 3 day): 73.4% | MCH (72 h, time 3 day): 21.3 pg | MCHC (72 h, time 3 day): 33.3% | MCV (72 h, time 3 day): 64.1 fL | Mono (72 h, time 3 day): 3% | Neu (72 h, time 3 day): 22% | PT (72 h, time 3 day): 14 s | Plat (72 h, time 3 day): 120.3 x10_4/uL | RBC (72 h, time 3 day): 627 x10_4/ul | Ret (72 h, time 3 day): 7.2% | WBC (72 h, time 3 day): 91.6 x10_2/uL | KIDNEY_L (72 h, time 3 day): 1.1 g | KIDNEY_R (72 h, time 3 day): 1.1 g | KIDNEY_TOTAL (72 h, time 3 day): 2.1 g | LIVER (72 h, time 3 day): 11.9 g | A/G (72 h, time 3 day): 0.8 | ALP (72 h, time 3 day): 1726.4 IU/L | ALT (72 h, time 3 day): 33.8 IU/L | AST (72 h, time 3 day): 66.8 IU/L | BUN (72 h, time 3 day): 14.8 mg/dL | CRE (72 h, time 3 day): 0.2 mg/dL | Ca (72 h, time 3 day): 11 mg/dL | Cl (72 h, time 3 day): 105.4 meq/L | DBIL (72 h, time 3 day): 0.02 mg/dL | GLC (72 h, time 3 day): 179 mg/dL | IP (72 h, time 3 day): 7.5 mg/dL | K (72 h, time 3 day): 4.1 meq/L | LDH (72 h, time 3 day): 67.2 IU/L | Na (72 h, time 3 day): 144 meq/L | PL (72 h, time 3 day): 165.2 mg/dL | RALB (72 h, time 3 day): 2.7 g/dL | TBIL (72 h, time 3 day): 0.048 mg/dL | TC (72 h, time 3 day): 82.4 mg/dL | TG (72 h, time 3 day): 104.6 mg/dL | TP (72 h, time 3 day): 5.9 g/dL | gamma-GTP (72 h, time 3 day): 1.2 IU/L | TERMINAL_BW ([…], time 7 day): 287 g | TERMINAL_BW ([…], time 14 day): 375 g | TERMINAL_BW ([…], time 28 day): 420.9 g | APTT ([…], time 7 day): 16.5 s | Bas ([…], time 7 day): 0% | Eos ([…], time 7 day): 1.2% | Fbg ([…], time 7 day): 262.4 mg/dL | Hb ([…], time 7 day): 13.5 g/dL | Ht ([…], time 7 day): 40% | Lym ([…], time 7 day): 81.2% | MCH ([…], time 7 day): 20.7 pg | MCHC ([…], time 7 day): 33.7% | MCV ([…], time 7 day): 61.5 fL | Mono ([…], time 7 day): 2.6% | Neu ([…], time 7 day): 14.4% | PT ([…], time 7 day): 13.9 s | Plat ([…], time 7 day): 112.2 x10_4/uL | RBC ([…], time 7 day): 651 x10_4/ul | Ret ([…], time 7 day): 6.3% | WBC ([…], time 7 day): 93.2 x10_2/uL | APTT ([…], time 14 day): 17.7 s | Bas ([…], time 14 day): 0.2% | Eos ([…], time 14 day): 1% | Fbg ([…], time 14 day): 321.4 mg/dL | Hb ([…], time 14 day): 14 g/dL | Ht ([…], time 14 day): 41.7% | Lym ([…], time 14 day): 75.8% | MCH ([…], time 14 day): 20.2 pg | MCHC ([…], time 14 day): 33.6% | MCV ([…], time 14 day): 60.2 fL | Mono ([…], time 14 day): 2.4% | Neu ([…], time 14 day): 20.4% | PT ([…], time 14 day): 13.8 s | Plat ([…], time 14 day): 127.4 x10_4/uL | RBC ([…], time 14 day): 694 x10_4/ul | Ret ([…], time 14 day): 4.6% | WBC ([…], time 14 day): 121.6 x10_2/uL | APTT ([…], time 28 day): 18.6 s | Bas ([…], time 28 day): 0.2% | Eos ([…], time 28 day): 1.2% | Fbg ([…], time 28 day): 296.4 mg/dL | Hb ([…], time 28 day): 15.3 g/dL | Ht ([…], time 28 day): 44% | Lym ([…], time 28 day): 79.4% | MCH ([…], time 28 day): 19.7 pg | MCHC ([…], time 28 day): 34.9% | MCV ([…], time 28 day): 56.5 fL | Mono ([…], time 28 day): 2.2% | Neu ([…], time 28 day): 16.6% | PT ([…], time 28 day): 13.9 s | Plat ([…], time 28 day): 99.2 x10_4/uL | RBC ([…], time 28 day): 778.4 x10_4/ul | Ret ([…], time 28 day): 2.7% | WBC ([…], time 28 day): 100.2 x10_2/uL | KIDNEY_L ([…], time 7 day): 1.2 g | KIDNEY_R ([…], time 7 day): 1.1 g | KIDNEY_TOTAL ([…], time 7 day): 2.3 g | KIDNEY_L ([…], time 14 day): 1.5 g | KIDNEY_R ([…], time 14 day): 1.3 g | KIDNEY_TOTAL ([…], time 14 day): 2.8 g | KIDNEY_L ([…], time 28 day): 1.4 g | KIDNEY_R ([…], time 28 day): 1.4 g | KIDNEY_TOTAL ([…], time 28 day): 2.9 g | LIVER ([…], time 7 day): 13.2 g | LIVER ([…], time 14 day): 17.3 g | LIVER ([…], time 28 day): 16.3 g | A/G ([…], time 7 day): 0.8 | ALP ([…], time 7 day): 1795.8 IU/L | ALT ([…], time 7 day): 32.2 IU/L | AST ([…], time 7 day): 65.6 IU/L | BUN ([…], time 7 day): 15.4 mg/dL | CRE ([…], time 7 day): 0.2 mg/dL | Ca ([…], time 7 day): 11 mg/dL | Cl ([…], time 7 day): 105.2 meq/L | DBIL ([…], time 7 day): 0.018 mg/dL | GLC ([…], time 7 day): 185 mg/dL | IP ([…], time 7 day): 7.3 mg/dL | K ([…], time 7 day): 4 meq/L | LDH ([…], time 7 day): 95.2 IU/L | Na ([…], time 7 day): 142.6 meq/L | PL ([…], time 7 day): 166.6 mg/dL | RALB ([…], time 7 day): 2.6 g/dL | TBIL ([…], time 7 day): 0.038 mg/dL | TC ([…], time 7 day): 77.8 mg/dL | TG ([…], time 7 day): 144 mg/dL | TP ([…], time 7 day): 5.8 g/dL | gamma-GTP ([…], time 7 day): 1 IU/L | A/G ([…], time 14 day): 0.8 | ALP ([…], time 14 day): 1354.4 IU/L | ALT ([…], time 14 day): 33 IU/L | AST ([…], time 14 day): 60.8 IU/L | BUN ([…], time 14 day): 16 mg/dL | CRE ([…], time 14 day): 0.2 mg/dL | Ca ([…], time 14 day): 11.1 mg/dL | Cl ([…], time 14 day): 104.4 meq/L | DBIL ([…], time 14 day): 0.02 mg/dL | GLC ([…], time 14 day): 188.8 mg/dL | IP ([…], time 14 day): 7.4 mg/dL | K ([…], time 14 day): 3.9 meq/L | LDH ([…], time 14 day): 97.4 IU/L | Na ([…], time 14 day): 144.8 meq/L | PL ([…], time 14 day): 170.2 mg/dL | RALB ([…], time 14 day): 2.8 g/dL | TBIL ([…], time 14 day): 0.05 mg/dL | TC ([…], time 14 day): 81 mg/dL | TG ([…], time 14 day): 160.8 mg/dL | TP ([…], time 14 day): 6.3 g/dL | gamma-GTP ([…], time 14 day): 1.2 IU/L | A/G ([…], time 28 day): 0.8 | ALP ([…], time 28 day): 1201 IU/L | ALT ([…], time 28 day): 30.8 IU/L | AST ([…], time 28 day): 62.4 IU/L | BUN ([…], time 28 day): 15.2 mg/dL | CRE ([…], time 28 day): 0.3 mg/dL | Ca ([…], time 28 day): 11 mg/dL | Cl ([…], time 28 day): 105.8 meq/L | DBIL ([…], time 28 day): 0.022 mg/dL | GLC ([…], time 28 day): 188.6 mg/dL | IP ([…], time 28 day): 5.8 mg/dL | K ([…], time 28 day): 3.9 meq/L | LDH ([…], time 28 day): 69.6 IU/L | Na ([…], time 28 day): 145.4 meq/L | PL ([…], time 28 day): 146.2 mg/dL | RALB ([…], time 28 day): 2.8 g/dL | TBIL ([…], time 28 day): 0.058 mg/dL | TC ([…], time 28 day): 65.4 mg/dL | TG ([…], time 28 day): 155.6 mg/dL | TP ([…], time 28 day): 6.3 g/dL | gamma-GTP ([…], time 28 day): 2 IU/L
